Experimental data: ChEMBL document CHEMBL1201862, “PubChem BioAssay data set” (2004)
Where “and” joins values, the source holds several entries; their conditions need not be identical. Identical values can stand only once.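 48-hour exposure; five concentrations; linearly interpolated endpoints. GI50 is the concentration that inhibits growth by half.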 Calls of active or inactive are those of the source. Cut-off read from the data, not from the text of the source: active = GI50 up to about 1.1 µM and inactive = higher. *1 amine or outer side, *2 acyl side, *3 side chain or, on linkers, in order; H or OH if unused. Where a SMILES comes first, the peptide text is derived from it. Bridges are numbered along the chain shown (N, C = ends). Roman numbers before positions name the chains, in order. [ ]: non-standard residue; d: D form. Actinocin(9to1) = Cc1c2oc3c(C)ccc(C(=O)[*:1])c3nc-2c(C(=O)[*:2])c(N)c1=O; NMeV = CN[CH](C(=O)O)C(C)C; Sar = CNCC(=O)O

Legend:
Assay in all cases: NCI tumour cell line growth inhibition, 48 h
OVCAR-4 = tested on: OVCAR-4
OVCAR-8 = tested on: OVCAR-8
MOLT-4 = tested on: MOLT-4
SNB-75 = tested on: SNB-75
OVCAR-3 = tested on: OVCAR-3
UACC-62 = tested on: UACC-62
UO-31 = tested on: UO-31
SNB-19 = tested on: SNB-19
ACHN = tested on: ACHN
EKVX = tested on: EKVX
U-251 = tested on: U-251
SK-MEL-5 = tested on: SK-MEL-5
SN12C = tested on: SN12C
TK-10 = tested on: TK-10
NCI-H460 = tested on: NCI-H460
HCT-116 = tested on: HCT-116
K562 = tested on: K562
HCT-15 = tested on: HCT-15
HT-29 = tested on: HT-29
COLO 205 = tested on: COLO 205

| Compound | GI50 (OVCAR-4) | GI50 (OVCAR-8) | GI50 (MOLT-4) | GI50 (SNB-75) | GI50 (OVCAR-3) | GI50 (UACC-62) | GI50 (UO-31) | GI50 (SNB-19) | GI50 (ACHN) | GI50 (EKVX) | GI50 (U-251) | GI50 (SK-MEL-5) | GI50 (SN12C) | GI50 (TK-10) | GI50 (NCI-H460) | GI50 (HCT-116) | GI50 (K562) | GI50 (HCT-15) [µM] | GI50 (HT-29) | GI50 (COLO 205) |
| --- | --- | --- | --- | --- | --- | --- | --- | --- | --- | --- | --- | --- | --- | --- | --- | --- | --- | --- | --- | --- |
| O=C1OC(c2ccccc2)=N/C1=C\c1ccccc1 | 86.5 µM (inactive) and 49.7 µM (inactive) | 38.8 µM (inactive) and 32.6 µM (inactive) | 28.2 µM (inactive) and 47 µM (inactive) | 66.8 µM (inactive) and 47.5 µM (inactive) | 24 µM (inactive) | > 100 µM (inactive) | > 100 µM (inactive) | 66.7 µM (inactive) and 40.1 µM (inactive) | > 100 µM (inactive) | > 100 µM (inactive) | 32.1 µM (inactive) and 35.1 µM (inactive) | 38.1 µM (inactive) and 29.4 µM (inactive) | 66.4 µM (inactive) | 62.7 µM (inactive) and 78.2 µM (inactive) | 45.9 µM (inactive) and 43.9 µM (inactive) | > 100 µM (inactive) |  |  |  |  |
| Oc1cccc(-c2nc3ccccc3s2)c1 | 19.1 µM (inactive) | 27.2 µM (inactive) | 24.2 µM (inactive) | 19 µM (inactive) | 21.6 µM (inactive) | 34.8 µM (inactive) | 26.1 µM (inactive) | 67.3 µM (inactive) | 41 µM (inactive) | 5.69 µM (inactive) | 39.5 µM (inactive) |  | 33.8 µM (inactive) |  | 34 µM (inactive) | 33 µM (inactive) | 55.6 µM (inactive) | 25.5 | 18.8 µM (inactive) | 35.9 µM (inactive) |
| N/C(=N\O)N/N=C/c1cc2c(cc1Cl)OCO2 | 52 µM (inactive) | 40.6 µM (inactive) | 39 µM (inactive) | 30.1 µM (inactive) |  | > 50.4 µM (inactive) | 21.4 µM (inactive) | > 25.8 µM (inactive) |  | 60.4 µM (inactive) | 34.5 µM (inactive) | 24.2 µM (inactive) | 59 µM (inactive) |  | 34.1 µM (inactive) | 51.5 µM (inactive) | 26.1 µM (inactive) | 13.7 | 46.1 µM (inactive) | 33.3 µM (inactive) |
| CC1(CO)OC(n2cnc3c(N)ncnc32)C(O)C1O (configuration not stated) | > 100 µM (inactive) | > 100 µM (inactive) | > 100 µM (inactive) | 87.3 µM (inactive) | > 100 µM (inactive) | > 100 µM (inactive) | > 100 µM (inactive) | > 100 µM (inactive) | > 100 µM (inactive) |  | > 100 µM (inactive) | > 100 µM (inactive) | > 100 µM (inactive) | > 100 µM (inactive) | > 100 µM (inactive) | > 100 µM (inactive) | > 100 µM (inactive) | > 100 | > 100 µM (inactive) | > 100 µM (inactive) |
| CC1=C2c3ccccc3N(C(=O)/C=C/C(=O)O)[C@H]2[C@H]2C(=O)OC(=O)[C@H]2C1 | > 10 µM (inactive) | > 10 µM (inactive) | > 10 µM (inactive) | > 10 µM (inactive) | > 10 µM (inactive) | > 10 µM (inactive) | > 10 µM (inactive) | > 10 µM (inactive) | > 10 µM (inactive) | > 10 µM (inactive) | > 10 µM (inactive) | > 10 µM (inactive) | > 10 µM (inactive) | > 10 µM (inactive) | > 10 µM (inactive) | > 10 µM (inactive) |  | > 10 | > 10 µM (inactive) | > 10 µM (inactive) |
| FC(F)(F)c1ccc2c(c1)nc1n2C(c2c(Cl)cccc2Cl)SC1 (configuration not stated) | 18.3 µM (inactive) | 25.4 µM (inactive) | 38.7 µM (inactive) | 15.1 µM (inactive) | 13.2 µM (inactive) | 14.4 µM (inactive) | 15.4 µM (inactive) | 19.1 µM (inactive) | 15.9 µM (inactive) | 14.2 µM (inactive) | 19.3 µM (inactive) |  | 16.9 µM (inactive) | 22 µM (inactive) | 16.8 µM (inactive) | 15.1 µM (inactive) |  | 21.6 | 16.1 µM (inactive) |  |
| c1ccc(/N=C(\N2CCCCC2)N(CCN2CCCCC2)c2ccccc2)cc1 | 1.2 µM (inactive) | 2.01 µM (inactive) | 0.279 µM (active) | 2.28 µM (inactive) | 0.401 µM (active) |  | 1.68 µM (inactive) | 3.78 µM (inactive) | 1.58 µM (inactive) |  | 1.39 µM (inactive) | 1.36 µM (inactive) | 2.11 µM (inactive) | 2.96 µM (inactive) | 0.274 µM (active) | 0.0736 µM (active) | 0.254 µM (active) | 1.68 | 0.141 µM (active) | 0.658 µM (active) |
| O=C1c2ccccc2C2(c3ccc(Cl)cc3)N[C@H]3CCCC[C@@H]3N12 (some centres not stated) | 84.3 µM (inactive) | > 100 µM (inactive) | 36.7 µM (inactive) | > 100 µM (inactive) | > 100 µM (inactive) | > 100 µM (inactive) | > 100 µM (inactive) | 35.4 µM (inactive) | > 100 µM (inactive) | 78.3 µM (inactive) | > 100 µM (inactive) | > 100 µM (inactive) | > 100 µM (inactive) | > 100 µM (inactive) |  | 60.1 µM (inactive) | > 100 µM (inactive) | > 100 | 73.8 µM (inactive) | > 100 µM (inactive) |
| CN(c1ccc(C(=O)c2ccc(N(C)S(C)(=O)=O)cc2)cc1)S(C)(=O)=O | > 100 µM (inactive) | > 100 µM (inactive) | 47 µM (inactive) | 83.6 µM (inactive) |  | > 100 µM (inactive) | 75.7 µM (inactive) | > 100 µM (inactive) | 77.8 µM (inactive) | 86.5 µM (inactive) | > 100 µM (inactive) | 27.9 µM (inactive) | > 100 µM (inactive) | > 100 µM (inactive) | > 100 µM (inactive) | > 100 µM (inactive) | 49.3 µM (inactive) |  | > 100 µM (inactive) | > 100 µM (inactive) |
| CCCCCCCCCCCCNC(=S)OC | 19.4 µM (inactive) | 15.8 µM (inactive) | 2.16 µM (inactive) | 16.8 µM (inactive) |  | 16.1 µM (inactive) | 4.13 µM (inactive) | 24.7 µM (inactive) | 17.9 µM (inactive) | 20.7 µM (inactive) | 16 µM (inactive) | 17.3 µM (inactive) | 14.3 µM (inactive) | 19.5 µM (inactive) | 17.3 µM (inactive) | 15.4 µM (inactive) | 17.5 µM (inactive) | 14.6 | 16.7 µM (inactive) |  |
| Cc1ccc(O)c(C(c2ccc([N+](=O)[O-])cc2)c2cc(C)ccc2O)c1 | 10.5 µM (inactive) | 11.7 µM (inactive) | 5.12 µM (inactive) | 2.18 µM (inactive) | 6.32 µM (inactive) | 7.4 µM (inactive) | 3.27 µM (inactive) | 13.1 µM (inactive) | 6.1 µM (inactive) | 14.3 µM (inactive) | 16.8 µM (inactive) | 5.75 µM (inactive) | 13.7 µM (inactive) | 16.3 µM (inactive) |  | 14.4 µM (inactive) | 12.2 µM (inactive) | 8.18 | 12.2 µM (inactive) | 20.7 µM (inactive) |
| Cc1c2c(cc3c1[nH]c1ccccc13)C(c1ccc(Cl)cc1)=NCC2 | 0.718 µM (active) | 0.804 µM (active) | 0.426 µM (active) | 0.217 µM (active) | 0.29 µM (active) | 0.452 µM (active) | 0.644 µM (active) | 0.355 µM (active) |  | 0.274 µM (active) | 0.608 µM (active) | 0.343 µM (active) | 0.244 µM (active) |  | 0.267 µM (active) | 0.542 µM (active) | 0.328 µM (active) | 0.416 | 0.203 µM (active) | 0.41 µM (active) |
| O=C(O)C(=C\c1ccc2c(c1)OCO2)/C(=C/c1ccc2c(c1)OCO2)C(=O)O | > 100 µM (inactive) | > 100 µM (inactive) | > 100 µM (inactive) | > 100 µM (inactive) | > 100 µM (inactive) | > 100 µM (inactive) | > 100 µM (inactive) | > 100 µM (inactive) |  |  | > 100 µM (inactive) | > 100 µM (inactive) | > 100 µM (inactive) | > 100 µM (inactive) | > 100 µM (inactive) | > 100 µM (inactive) | > 100 µM (inactive) | > 100 | > 100 µM (inactive) | > 100 µM (inactive) |
| O=C1Oc2ccccc2C(=O)/C1=C\NC(=S)c1ccncc1 | > 100 µM (inactive) | 99.3 µM (inactive) | 95.1 µM (inactive) | 99.3 µM (inactive) | 71.6 µM (inactive) | > 100 µM (inactive) | 45.7 µM (inactive) | 96.8 µM (inactive) | 53.3 µM (inactive) | > 100 µM (inactive) | > 100 µM (inactive) | > 100 µM (inactive) | > 100 µM (inactive) | > 100 µM (inactive) | 57.7 µM (inactive) | > 100 µM (inactive) |  | 69.3 | > 100 µM (inactive) | > 100 µM (inactive) |
| Cc1c2oc3c(C)ccc(C(=O)NC4C(=O)NC(C(C)O)C(=O)N5CCCC5C(=O)N(C)CC(=O)N(C)C(C(C)C)C(=O)OC4C)c3nc-2c(C(=O)NC2C(=O)NC(C(C)O)C(=O)N3CCCC3C(=O)N(C)CC(=O)N(C)C(C(C)C)C(=O)OC2C)c(N)c1=O (configuration not stated) (I: TTP[Sar][NMeV] / II: TTP[Sar][NMeV]; ester I:1-I:C, II:1-II:C; linker I:N-II:N via Actinocin(9to1); configuration not given here) | 0.931 µM (active) | 0.195 µM (active) | 0.0527 µM (active) | 0.198 µM (active) | 0.28 µM (active) | 0.103 µM (active) | 2 µM (inactive) | 0.147 µM (active) | 0.427 µM (active) |  | 0.0904 µM (active) | 0.167 µM (active) | 0.207 µM (active) | 0.643 µM (active) | 0.0818 µM (active) | 0.0456 µM (active) | 0.0448 µM (active) | 7.48 | 0.34 µM (active) | 0.0528 µM (active) |
